# “And” between values parts separate entries of the source, which are not always exact repeats. Equal values may be shown once. “Also recorded” adds a separate entry of the source. Read-outs that look alike come from different tables or passages of the source.
# How the values were obtained:
# Notch signalling = experiment: Notch reporter assay (12xCSL firefly luciferase / renilla luciferase, HEK293T Notch1ΔE reporter cell line clone #A1-11); assay type: cell-based; design: AUC Notch: scale not given here; details: for Bottom (Emax): Emax indicated independent from assay constraints, in % (unit assumed); for AUC Notch: area under the 14-point dose-response curve; for AUC 9p Notch reporter assay: 9p dose response; for AUC 9p Notch reporter assay / AUC 14p Notch reporter assay: AUCs averaged when replicates available; for 14p Notch reporter assay averaged IC50s (log): log10 of averaged IC50; for Notch assay: overview in comparison to compound C, Supplemental Fig. 9
# Excerpt: To identify novel Notch inhibitors in an unbiased manner, we generated a novel Notch reporter construct, which records the level of Notch signalling immediately downstream of receptor activation rather than further downstream in the signalling cascade, for example at the level of Hes and Hey proteins (Fig. 1B). […] The reporter construct carries piggy-bac sequences at both ends of the promoter-reporter cassette as well as cSH4 insulator elements to reduce transcriptional noise[21] and was transfected into HEK293T cells. To achieve a robust level of Notch receptor activity in the HEK293T reporter cell line and to confine the search for inhibitors to compounds affecting the receptor function and eliminating the need for ligand activation, a truncated ligand-independent version of the Notch1 receptor, mimicking an S2-cleaved Notch1 receptor (Notch1ΔE) and spontaneously activated by S3-cleavage[22] (Fig. 1C) was introduced into the cell line carrying the reporter construct (Fig. 1D). In addition, an HSV-TK-renilla luciferase plasmid was introduced into the cell line as an internal control for normalisation of the reporter expression (Fig. 1D).
# A de novo Notch reporter construct, composed of six dimeric CSL binding sites linked to a basic b-globin promoter and followed by a firefly luciferase gene and a PEST degradation domain was synthesised (GeneArt). The construct was stably introduced into HEK293T cells, and zeocin (0.1 mg/ml) or Puromycin (0.05 mg/ml (ThermoFisher, cat #R25001, #A1113803) were used as selection markers. A clonal cell line (clone #A1) with robust renilla expression and enhanced firefly luciferase expression upon transient transfection of Notch1 ICD or Notch1ΔE constructs was selected, and a UB6 promoter-Notch1DE construct was stably introduced into this cell line using Blasticidin (0.1 mg/ml; ThermoFisher, cat #A1113903) as a selection marker. Stable cell lines were generated by serial dilution and only clonal colonies were selected for further evaluation. To measure luciferase reporter activity, cells were washed in cold PBS, detached, and collected in pre-warmed cell culture medium and centrifugated for five min at 200xg. The cell pellet was resuspended in medium, cells were counted, and 4,000 cells were seeded in each well of a white 384 well plate (Corning #3670) in 20 µl medium containing either DMSO or the GSI DAPT (N-[N-(3,5-Difluorophenacetyl)-L-alanyl]-S-phenylglycine t-butyl ester, Sigma-Aldrich, cat #565784-M) and incubated for 24 h. The efficacy of the reporter gene system was determined by monitoring the level of luciferase activation in the absence or presence of different amounts of DAPT in several cell clones. Luciferase activity was assessed using the dual-GLO luciferase detection kit from Promega (cat # E2920), following the manufacturer’s instructions. A minimum of two technical replicates were measured per clone using a SpectraMaxi3 plate reader (Molecular Devices). Reporter activity of different clones and in response to DAPT was assessed by normalising firefly (Notch activity) to renilla luciferase signals. Normalised signals of individual clones cultivated in DMSO were then compared to corresponding signals generated with DAPT-treated cells. The cell clone with the strongest signal to control ratio (DMSO to DAPT) was then selected for further exploration (clone #A1-11).
# 37,966 compounds were spotted by the compound center at SciLifeLab (https://www.scilifelab.se/) on a total of 120 plates (Greiner #781080) at a fixed concentration of 10 µM and the screening process spanned five consecutive sessions. The layout of each plate contained one column for DMSO and one for DAPT controls to determine the quality and reliability of the data. DAPT controls were spotted at 10 µM and DMSO was spotted in an equimolar volume. In addition, plates spotted with only DMSO were utilized to investigate the impact of plate effects before and after each session. […]
# γ-secretase complex = γ-secretase complex (Homo sapiens, UniProt P49768); experiment: APP-C99 counter assay (GSI reporter assay); assay type: cell-based; design: AUC APP: scale not given here; details: for Hill-slope: bottom constrained to Emax of positive control LY-411575; for AUC APP: area under the 14-point dose-response curve, replicates averaged; for AUC 9p APP-counter assay / AUC. 14p APP-counter assay: AUCs averaged when replicates available; for Bottom (Emax): Emax indicated independent from assay constraints; for APP assay: overview in comparison to compound C, Supplemental Fig. 9
# Protocol: To this end, we used a previously established reporter gene-based GSI assay (APP-C99) (Fig. 3A), which measures γ-secretase activity through cleavage of amyloid precursor protein (APP), another protein processed by the γ-secretase complex[24]
# Plasmids for APP and luciferase are described in[24] and the renilla plasmid described above generated for this project was used to normalize firefly values. 24 h post transfection cells were seeded on compound plates and cells were cultivated for 24 h before luciferase signals were read, as described.
# Two-fold concentrations of compounds were diluted in 10 µl cell culture medium and brought to one-fold by seeding 10 µl containing 4000 cells of the respective cell type on each well of a 384-well plate, as described above. Analogous to the previous assays, all plates contained one DMSO and DAPT control column with the Notch reporter cell line (#A1-11) and a DMSO only and Notch inhibitor control plate was read before the measuring the screening plates. In addition, DAPT and DMSO were spotted in a dose response fashion, and a minimum of four replicates were read. Dose-responses of compounds were recorded in triplicates for each concentration reading out the dual luciferase reporters, as described above. Dose response assays were read together in one session. To measure compound effects, the different assays dose–response curves were fitted using the log(inhibitor) vs. response – Variable slope (model: Y = Bottom + (Top–Bottom)/(1 + 10^((LogIC50-X)*HillSlope)) equation.
# A DMSO plate was read before measuring luciferase activity of compound spotted plates. APP firefly luciferase reporter assays were read with a signal integration time of 0.1 s, instead of 0.5 s used for the Notch reporter to reduce signal overlap between wells. […] The area-under-the-curve (AUC) was calculated on dose–response curves using Graphpad Prism.
# [1] = Homo sapiens, HEK-293T, 14-point dose-response, Fig. 4, read-out: approximated IC50, Notch reporter assay
# [2] = Homo sapiens, HEK-293T, 14p Notch assay DR, bottom constrained to Emax of positive control DAPT, read-out: approximated IC50
# [3] = Homo sapiens, HEK-293T, 14p Notch assay DR, log10 value, bottom constrained to Emax of positive control DAPT, read-out: approximated LogIC50 (converted)
# [4] = 14-point, unit inferred, replicates averaged, read-out: approxiated IC50s 14p Notch reporter assay
# [5] = 14p Notch assay DR, log10 value, Notch inhibitor controls, no bottom constraint named
# [6] = 14p dose response, single replicates, read-out: approximated IC50s 14p Notch reporter assay
smiles,measurement,setting,value
Cc1ccccc1CN1CCC2(CC1)OCCc1c2[nH]c2ccc(Br)cc12 [CBK040353],Bottom (Emax),Notch signalling; 14p Notch assay DR,48.2
same,IC50,Notch signalling; [1],1800 nM
same,IC50,Notch signalling; [2],1700 nM
same,IC50,Notch signalling; [3],1580 nM
same,AUC Notch,Notch signalling; replicates averaged,584.0
same,Hill-slope,γ-secretase complex; 14p APP assay DR,0.0279
same,AUC APP,γ-secretase complex,724.9
c1ccc(-c2ccccc2CN2CCC3(CC2)OCCc2c3[nH]c3ccccc23)cc1 [CBK040201],Bottom (Emax),Notch signalling; 14p Notch assay DR,50.0
same,IC50,Notch signalling; [2],2000 nM
same,IC50,Notch signalling; [3],2000 nM
same,AUC Notch,Notch signalling; replicates averaged,592.0
same,Hill-slope,γ-secretase complex; 14p APP assay DR,0.0232
same,AUC APP,γ-secretase complex,739.3
CC(=O)N1CCc2sccc2C1c1ccccc1NCc1ccoc1 (centres unmarked) [CBK286432],activity at 10 µM,"Notch signalling; Homo sapiens, HEK-293T, 10 µM, primary screen, 24 h, unit from Fig. 2 legend, read-out: Primary screen at 10 µM (Notch reporter signal)",37.6%
same,activity at 10 µM,"Notch signalling; Homo sapiens, HEK-293T, 10 µM, three-dose confirmation screen, unit from Fig. 2 legend, read-out: Hit confirmation at 10 µM (Notch reporter signal)",57.2%
same,activity at 10 µM,"Notch signalling; Homo sapiens, HEK-293T, 10µM, 3-point DR confirmation screen, Notch reporter assay, read-out: inhibitor ratio in % of DMSO in 3 point DR",57.2%
same,activity at 10 µM,"Notch signalling; Homo sapiens, HEK-293T, 10 µM, sheet conf vs counter 10 µM, same values as 3-point DR confirmation screen, read-out: Confirmation screen",57.2%
same,activity at 25 µM,"Notch signalling; Homo sapiens, HEK-293T, 25µM, 3-point DR confirmation screen, Notch reporter assay, read-out: inhibitor ratio in % of DMSO in 3 point DR",45.5%
same,activity at 25 µM,"Notch signalling; Homo sapiens, HEK-293T, 25 µM, Notch reporter 3-point dose-confirmation assay, sheet ""conf vs counter 25 µM"", read-out: Confirmation screen",45.5%
same,activity,"Notch signalling; Homo sapiens, HEK-293T, 1,25µM, 3-point DR confirmation screen, Notch reporter assay, read-out: inhibitor ratio in % of DMSO in 3 point DR",88.7%
same,Hill-slope,γ-secretase complex; 14p APP assay DR,-0.0118
same,remaining activity at 10 µM,"γ-secretase complex; 24 h, 10µM, APP-C99 counter assay, read-out: 3p-DR in % of DMSO counter",152%
same,remaining activity at 25 µM,"γ-secretase complex; 24 h, 25µM, APP-C99 counter assay, read-out: 3p-DR in % of DMSO counter",184%
same,remaining activity at […],"γ-secretase complex; 24 h, 1,25µM, APP-C99 counter assay, read-out: 3p-DR in % of DMSO counter",147%
COc1cc(Nc2cncc(-c3cccc(NC(C)=O)c3)n2)cc(OC)c1OC [CBK065162],Bottom (Emax),Notch signalling; 14p Notch assay DR,40.8
same,IC50,Notch signalling; [2],27000 nM
same,IC50,Notch signalling; [3],25100 nM
same,AUC Notch,Notch signalling; replicates averaged,335.0
same,Hill-slope,γ-secretase complex; 14p APP assay DR,0.0468
same,AUC APP,γ-secretase complex,573.8
"C[C@H](NC(=O)[C@@H](O)c1cc(F)cc(F)c1)C(=O)N[C@@H]1C(=O)N(C)c2ccccc2-c2ccccc21 [LY-411575, reference compound]",reporter signal in % of DMSO,"Notch signalling; 10 µM, inhibitor controls, Supplemental Fig. 2A",46%
same,AUC 9p Notch reporter assay,Notch signalling,1.91E+02
same,IC50,Notch signalling; [4],0.88 nM
same,Bottom (Emax),Notch signalling; 14p Notch assay DR,46.0 and 46.9
same,Hill-slope,"Notch signalling; 14p Notch assay DR, Notch inhibitor controls, no bottom constraint named",-1.3
same,approximated LogIC50 [M],Notch signalling; [5],-9.0 M
same,Hill-Slope 14p Notch reporter assay,Notch signalling; 14p dose response,-1.3
same,IC50,Notch signalling; [6],0.86 nM and 0.9 nM
same,AUC 14p Notch reporter assay,Notch signalling; 14p dose response,3.73E+02
same,14p Notch reporter assay averaged IC50s (log),Notch signalling; 14p dose response,-9.1
same,AUC Notch,Notch signalling; replicates averaged,373.0
same,Notch assay,Notch signalling,highest potency; also recorded: highest activity
same,Hill-Slope 9p APP counter assay averaged,γ-secretase complex; 9p dose response,-1.0
same,AUC 9p APP-counter assay,γ-secretase complex; 9p dose response,1.95E+02
same,Bottom (Emax),γ-secretase complex; 14p APP assay DR,44.6 and 46.0
same,AUC. 14p APP-counter assay,γ-secretase complex; 14p dose response,4.29E+02
same,AUC APP,γ-secretase complex,428.9
same,APP assay,γ-secretase complex,highest potency
Cc1ccccc1C(=O)NC(=S)Nc1sc2c(c1C(N)=O)CCC2 [CBK262107],Bottom (Emax),Notch signalling; 14p Notch assay DR,90.8
same,IC50,Notch signalling; [1],> 40000 nM
same,AUC Notch,Notch signalling; replicates averaged,379.0
same,Hill-slope,γ-secretase complex; 14p APP assay DR,0.0876
same,AUC APP,γ-secretase complex,533.6
"C[C@H](NC(=O)Cc1cc(F)cc(F)c1)C(=O)N[C@@H]1C(=O)N(C)c2ccccc2-c2ccccc21 [YO-01027, reference compound]",AUC 9p Notch reporter assay,Notch signalling,1.99E+02
same,IC50,Notch signalling; [4],1.7 nM
same,Bottom (Emax),Notch signalling; 14p Notch assay DR,43.4 and 46.0
same,approximated LogIC50 [M],Notch signalling; [5],-8.7 M
same,IC50,Notch signalling; [6],2 nM and 1.5 nM
same,AUC 14p Notch reporter assay,Notch signalling; 14p dose response,3.83E+02
same,14p Notch reporter assay averaged IC50s (log),Notch signalling; 14p dose response,-8.8
same,AUC Notch,Notch signalling; replicates averaged,383.0
same,Notch assay,Notch signalling,higher potency
same,Hill-Slope 9p APP counter assay averaged,γ-secretase complex; 9p dose response,-1.7
same,AUC 9p APP-counter assay,γ-secretase complex; 9p dose response,2.30E+02
same,IC50,"γ-secretase complex; 9p dose response, averaged, read-out: 9p APP counter assay averaged IC50s",17 nM
same,IC50,"γ-secretase complex; 9p dose response, read-out: approximated IC50s 9p APP counter assay",17 nM
same,IC50,"γ-secretase complex; 14-point, unit inferred, some fits outside of tested concentration range, read-out: approximated IC50s 14p APP-counter assay",21 nM
same,Bottom (Emax),γ-secretase complex; 14p APP assay DR,40.6 and 48.3
same,IC50,"γ-secretase complex; 14p APP assay DR, Notch inhibitor controls, no bottom constraint named, read-out: approximated IC50",16 nM and 27 nM
same,approximated LogIC50 [M],"γ-secretase complex; 14p APP assay DR, log10 value, Notch inhibitor controls, no bottom constraint named",-7.8 M and -7.6 M
same,AUC. 14p APP-counter assay,γ-secretase complex; 14p dose response,4.62E+02
same,14p APP counter assay averaged IC50s (log),"γ-secretase complex; 14p dose response, log10 of averaged IC50",-7.7
same,AUC APP,γ-secretase complex,461.6
same,APP assay,γ-secretase complex,higher potency
Fc1ccc2[nH]c3c(c2c1)CCOC31CCN(Cc2ccccc2-c2ccccc2)CC1 [CBK039913],Bottom (Emax),Notch signalling; 14p Notch assay DR,44.4
same,IC50,Notch signalling; [2],1200 nM
same,IC50,Notch signalling; [3],1260 nM
same,AUC Notch,Notch signalling; replicates averaged,588.0
same,Hill-slope,γ-secretase complex; 14p APP assay DR,0.0284
same,AUC APP,γ-secretase complex,726.2

# From article PMC13242511, “Disrupting Notch signalling by a small molecule inhibiting dihydroorotate dehydrogenase activity” (Scientific Reports, 2026)
